Experimental data as given in ChEMBL document CHEMBL5036317, “Identification of Unique Quinazolone Thiazoles as Novel Structural Scaffolds for Potential Gram-Negative Bacterial Conquerors” (J Med Chem, 2021).
Values after ≈ are worked out from the molar mass of the structure shown.

What was measured:
[1] = tested on: Escherichia coli; test: Antibacterial activity against Escherichia coli assessed as inhibition of bacterial growth measured after 24 hrs by two-fold serial dilution method; format: functional
[2] = tested on: Staphylococcus aureus; test: Antibacterial activity against methicillin-resistant Staphylococcus aureus assessed as inhibition of bacterial growth measured after 24 hrs by two-fold serial dilution method; format: functional
[3] = tested on: Staphylococcus aureus; test: Antibacterial activity against Staphylococcus aureus ATCC 29213 assessed as inhibition of bacterial growth measured after 24 hrs by two-fold serial dilution method; format: functional
[4] = tested on: Staphylococcus aureus; test: Antibacterial activity against Staphylococcus aureus ATCC 25923 assessed as inhibition of bacterial growth measured after 24 hrs by two-fold serial dilution method; format: functional
[5] = tested on: Staphylococcus aureus; test: Antibacterial activity against Staphylococcus aureus assessed as inhibition of bacterial growth measured after 24 hrs by two-fold serial dilution method; format: functional
[6] = Haemolytic activity in human erythrocytes incubated for 2 hrs; format: ADME, cell-based, Erythrocyte
[7] = tested on: Escherichia coli; test: Antibacterial activity against Escherichia coli ATCC 25922 assessed as inhibition of bacterial growth measured after 24 hrs by two-fold serial dilution method; format: functional
[8] = tested on: Pseudomonas aeruginosa; test: Antibacterial activity against Pseudomonas aeruginosa ATCC 27853 assessed as inhibition of bacterial growth measured after 24 hrs by two-fold serial dilution method; format: functional
[9] = tested on: Pseudomonas aeruginosa; test: Antibacterial activity against Pseudomonas aeruginosa assessed as inhibition of bacterial growth measured after 24 hrs by two-fold serial dilution method; format: functional
[10] = tested on: Klebsiella pneumoniae; test: Antibacterial activity against Klebsiella pneumoniae assessed as inhibition of bacterial growth measured after 24 hrs by two-fold serial dilution method; format: functional
[11] = tested on: Acinetobacter baumannii; test: Antibacterial activity against Acinetobacter baumanii assessed as inhibition of bacterial growth measured after 24 hrs by two-fold serial dilution method; format: functional
[12] = tested on: Enterococcus faecalis; test: Antibacterial activity against Enterococcus faecalis assessed as inhibition of bacterial growth measured after 24 hrs by two-fold serial dilution method; format: functional

Row | SMILES | MIC [1] [µg/mL] | MIC [2] [µg/mL] | MIC [3] [µg/mL] | MIC [4] [µg/mL] | MIC [5] [µg/mL] | HC50 at 2 h [6] [µg/mL] | MIC [7] [µg/mL] | MIC [8] [µg/mL] | MIC [9] [µg/mL] | MIC [10] [µg/mL] | MIC [11] [µg/mL] | MIC [12] [µg/mL]
1 | O=C(/C(=C/c1nccs1)n1cnc2cc(Cl)ccc2c1=O)c1nccs1 | 16 (≈ 39.9 µM) | 4 (≈ 9.98 µM) | 2 (≈ 4.99 µM) | 2 (≈ 4.99 µM) | 2 (≈ 4.99 µM) | 115 | 4 (≈ 9.98 µM) | 4 (≈ 9.98 µM) | 16 (≈ 39.9 µM) | 4 (≈ 9.98 µM) | 16 (≈ 39.9 µM) | 1 (≈ 2.49 µM)
2 | Cc1ccc2c(/C=C(/C(=O)c3nccs3)n3cnc4cc(Cl)ccc4c3=O)c[nH]c2c1 | 128 (≈ 286 µM) | 32 (≈ 71.6 µM) | 32 (≈ 71.6 µM) | 32 (≈ 71.6 µM) | 512 (≈ 1150 µM) | > 250 | 16 (≈ 35.8 µM) | 8 (≈ 17.9 µM) | 64 (≈ 143 µM) | 64 (≈ 143 µM) | 8 (≈ 17.9 µM) | 64 (≈ 143 µM)
3 | O=C(/C(=C/c1ncc[nH]1)n1cnc2cc(Cl)ccc2c1=O)c1nccs1 | 256 (≈ 667 µM) | 512 (≈ 1330 µM) | 512 (≈ 1330 µM) | 512 (≈ 1330 µM) | 512 (≈ 1330 µM) | > 250 | 64 (≈ 167 µM) | 16 (≈ 41.7 µM) | 16 (≈ 41.7 µM) | 64 (≈ 167 µM) | 512 (≈ 1330 µM) | 512 (≈ 1330 µM)
4 | O=C(/C(=C/c1csc2ccccc12)n1cnc2cc(Cl)ccc2c1=O)c1nccs1 | 16 (≈ 35.6 µM) | 512 (≈ 1140 µM) | 16 (≈ 35.6 µM) | 256 (≈ 569 µM) | 512 (≈ 1140 µM) | > 250 | 16 (≈ 35.6 µM) | 16 (≈ 35.6 µM) | 32 (≈ 71.1 µM) | 128 (≈ 284 µM) | 32 (≈ 71.1 µM) | 512 (≈ 1140 µM)
5 | O=C(/C(=C/c1cccc(Cl)c1)n1cnc2cc(Cl)ccc2c1=O)c1nccs1 | 4 (≈ 9.34 µM) | 8 (≈ 18.7 µM) | 8 (≈ 18.7 µM) | 8 (≈ 18.7 µM) | 32 (≈ 74.7 µM) | > 250 | 4 (≈ 9.34 µM) | 4 (≈ 9.34 µM) | 32 (≈ 74.7 µM) | 128 (≈ 299 µM) | 1 (≈ 2.33 µM) | 128 (≈ 299 µM)
6 | O=C(/C(=C/c1ccc([N+](=O)[O-])cc1)n1cnc2cc(Cl)ccc2c1=O)c1nccs1 | 64 (≈ 146 µM) | 8 (≈ 18.2 µM) | 2 (≈ 4.56 µM) | 4 (≈ 9.11 µM) | 2 (≈ 4.56 µM) | > 250 | 2 (≈ 4.56 µM) | 4 (≈ 9.11 µM) | 4 (≈ 9.11 µM) | 16 (≈ 36.5 µM) | 4 (≈ 9.11 µM) | 2 (≈ 4.56 µM)
7 | Cc1ccc(/C=C(/C(=O)c2nccs2)n2cnc3cc(Cl)ccc3c2=O)cc1 | 32 (≈ 78.5 µM) | 64 (≈ 157 µM) | 4 (≈ 9.81 µM) | 2 (≈ 4.9 µM) | 4 (≈ 9.81 µM) | > 250 | 1 (≈ 2.45 µM) | 1 (≈ 2.45 µM) | 4 (≈ 9.81 µM) | 128 (≈ 314 µM) | 1 (≈ 2.45 µM) | 8 (≈ 19.6 µM)
8 | O=C(/C(=C/c1ccc(N2CCCCC2)cc1F)n1cnc2cc(Cl)ccc2c1=O)c1nccs1 | 512 (≈ 1030 µM) | 512 (≈ 1030 µM) | 2 (≈ 4.04 µM) | 512 (≈ 1030 µM) | 512 (≈ 1030 µM) | 181 | 512 (≈ 1030 µM) | 32 (≈ 64.6 µM) | 128 (≈ 259 µM) | 512 (≈ 1030 µM) | 128 (≈ 259 µM) | 512 (≈ 1030 µM)
9 | COc1ccc(/C=C(/C(=O)c2nccs2)n2cnc3cc(Cl)ccc3c2=O)cc1 | 32 (≈ 75.5 µM) | 8 (≈ 18.9 µM) | 4 (≈ 9.44 µM) | 4 (≈ 9.44 µM) | 64 (≈ 151 µM) | 245 | 32 (≈ 75.5 µM) | 32 (≈ 75.5 µM) | 32 (≈ 75.5 µM) | 512 (≈ 1210 µM) | 512 (≈ 1210 µM) | 32 (≈ 75.5 µM)
10 | O=C(/C(=C/c1ccc(C(F)(F)F)cc1)n1cnc2c(Cl)cc(Cl)cc2c1=O)c1nccs1 | 4 (≈ 8.06 µM) | 4 (≈ 8.06 µM) | 8 (≈ 16.1 µM) | 8 (≈ 16.1 µM) | 128 (≈ 258 µM) | > 250 | 4 (≈ 8.06 µM) | 1 (≈ 2.01 µM) | 8 (≈ 16.1 µM) | 1 (≈ 2.01 µM) | 1 (≈ 2.01 µM) | 64 (≈ 129 µM)
11 | CN(C)/C=C(/C(=O)c1nccs1)n1cnc2cc(Cl)ccc2c1=O | 512 (≈ 1420 µM) | 512 (≈ 1420 µM) | 512 (≈ 1420 µM) | 256 (≈ 709 µM) | 512 (≈ 1420 µM) | 204 | 16 (≈ 44.3 µM) | 16 (≈ 44.3 µM) | 16 (≈ 44.3 µM) | 128 (≈ 355 µM) | 128 (≈ 355 µM) | 128 (≈ 355 µM)
